Data as given in patent US11911386B2, “Methods of treating B-cell proliferative disorder” (BeiGene Switzerland GmbH, priority 2022, dated 2024).
“And” between values parts separate entries of the source, which are not always exact repeats. Identical values can stand only once.

Tested on: previously treated B-cell malignancies (CLL/SLL, WM, MCL, MZL)
Experiment: Phase 2 (NCT04116437): investigator-assessed efficacy (ORR, DCR, DOR, PFS, OS)
Format: in vivo, human
Conditions: for Months to BOR, median: patients who responded
Protocol: PFS and patient-reported outcomes were assessed as secondary efficacy endpoints.
The study's secondary endpoints were: • ORR, defined as the proportion of patients achieving a best overall response (BOR) of CR, CRi, nodular partial response, partial response (PR), or partial response with lymphocytosis (PR-L) in patients with CLL; CR or PR in patients with SLL, MCL, or MZL; and CR, very good partial response, PR, or minor response (MR) in patients with WM before initiation of subsequent antineoplastic therapy. • DCR, defined as the proportion of patients who attain a BOR of stable disease or better before initiation of subsequent antineoplastic therapy. • Duration of response (DOR), defined as time from […] to date of first documented disease progression or death, whichever occurs first. • PFS, defined as time from first dose date to date of first documented disease progression or death, whichever occurs first. • Time to first response, defined as time from first dose to date of first qualifying response. For example, for a patient who attained a PR-L followed by PR for subsequent assessments, time to first response was the time from first dose to date of first PR-L. • Time to BOR, defined as time from first dose to date of best of overall response.
A patient's BOR was the best response recorded throughout the study prior to initiation of any new anticancer therapy and data cutoff. In some cases, the BOR could only be stable disease (e.g., if the patient was in CR at study entry) because patients were not required to progress prior to entering the study. • ORR was the proportion of patients who attained a BOR of: • PR-L or better (CR, CRi, nodular partial response, PR, PR-L) in patients with CLL; • PR or better (CR, PR) in patients with SLL, MCL, and MZL; • MR or better (CR, very good partial response, PR, MR) in patients with WM.
Per the Safety Analysis Set, patients without postbaseline disease assessment were considered non-responders. DCR was summarized with 95% exact confidence intervals. A sensitivity analysis of DCR was conducted in patients in the Efficacy Evaluable Set; patients who died or discontinued study prior to their first disease assessment due to adverse events were classified as not achieving disease control. An additional sensitivity analysis of DCR excluded patients with low disease burden, as defined above.
The PFS distribution and its related metrics such as median PFS and landmark rates were estimated using the Kaplan-Meier method with censoring rules as defined in Table 29.
Zanubrutinib capsules were taken orally with water and with or without food. Imaging and laboratory assessments at study entry were considered baseline for response assessment; patients were not required to meet criteria for initiation of treatment at study entry.

[1] = Cohort 1 (prior ibrutinib), n = 57
[2] = Cohort 2 (prior acalabrutinib + ibrutinib), n = 7
[3] = Efficacy Evaluable Set, 68 patients

C=CC(=O)N1CCC([C@@H]2CCNc3c(C(N)=O)c(-c4ccc(Oc5ccccc5)cc4)nn32)CC1 [zanubrutinib, (S)-7-(1-acryloylpiperidin-4-yl)-2-(4-phenoxyphenyl)-4,5,6,7-tetrahydropyrazolo[1,5-a]pyrimidine-3-carboxamide]
DCR (160 mg bid group): 95.0%
ORR (160 mg bid group): 70.0%
DCR (320 mg qd group): 91.7%
ORR (320 mg qd group): 54.2%
BOR PD (Cohort 1): 1 (1.8) n (%)
BOR PR-L or better (Cohort 1): 36 (63.2) n (%)
BOR SD (Cohort 1): 18 (31.6) n (%)
Months to first OR, median (Cohort 1): 2.92 months
DCR (SD or better) [1]: (94.7, 85.4-98.9) %
ORR (better than SD) [1]: (63.2, 49.3-75.6) %
Months to BOR, median (Cohort 1): 5.5 months
BOR PD (Cohort 2): 1 (14.3) n (%)
BOR PR-L or better (Cohort 2): 5 (71.4) n (%)
BOR SD (Cohort 2): 1 (14.3) n (%)
Months to first OR, median (Cohort 2): 3.02 months
DCR (SD or better) [2]: (85.7, 42.1-99.6) %
ORR (better than SD) [2]: (71.4, 29.0-96.3) %
Months to BOR, median (Cohort 2): 7.9 months
BOR better than stable disease (ORR) [3]: 67.6%
BOR of PR [3]: 66.2%
BOR of stable disease or better (DCR) [3]: 95.6%
BOR PD (Total): 3.1 n (%) and 2 (3.1) n (%)
BOR PR-L or better (Total): 41 (64.1) n (%)
BOR SD (Total): 29.7 n (%) and 19 (29.7) n (%)
Months to first OR, median (Total): 2.96 months
Months to BOR, median (Total): 5.6 months
Median DOR (additional analysis): not reached
Median PFS (additional analysis): not reached
18-month event-free PFS rate (additional analysis, 67 patients): 83.8%
Chance of being alive after 24 months (all patients): 89.3%
Estimated probability of responding for at least 12 months (all patients): 91.8%
Median DOR (all patients): not reached
ORR (excluding eight patients ineligible for PR due to low baseline disease burden): 73.2%
12-month event-free DOR rate (in vivo): 95.0%
Median time to first response (better than SD) (in vivo): 3.0 months
Median PFS (overall): not reached
PFS event-free rate at 18 months (overall (clinical study report cut-off)): 80.4%
Estimated probability of responding for at least 12 months (patients with WM): 100%
PFS event-free rate at 18 months (patients with WM): 100%
BOR better than stable disease (patients with WM, 11 patients): 90.9%
BOR of stable disease or better (patients with WM, 11 patients): 100%
Very good partial response (patients with WM, 11 patients): 45.5%
